Where “and” joins values, the source holds several entries; their conditions need not be identical. Equal values may be shown once.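 Exposure lasted 48 hours, with cells grown in 96-well plates and compounds tested at five concentrations. GI50 marks 50% less growth.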 Calls of active or inactive are those of the source. No stated cut-off is given here; in the data, active = GI50 up to about 1.1 µM and inactive = higher.
Key:
Test in all cases: inhibition of tumour cell growth, NCI panel, 48 h
786-0 = system: 786-0
A498 = system: A498
ACHN = system: ACHN
CAKI-1 = system: CAKI-1
CCRF-CEM = system: CCRF-CEM
DU-145 = system: DU-145
EKVX = system: EKVX
HCC 2998 = system: HCC 2998
HCT-15 = system: HCT-15
HOP-62 = system: HOP-62
Hs-578T = system: Hs-578T
LOX IMVI = system: LOX IMVI
MCF7 = system: MCF7
MDA-MB-231 = system: MDA-MB-231
MOLT-4 = system: MOLT-4
NCI-H23 = system: NCI-H23
NCI/ADR-RES = system: NCI/ADR-RES
OVCAR-4 = system: OVCAR-4
OVCAR-8 = system: OVCAR-8
PC-3 = system: PC-3
RXF 393 = system: RXF 393
SF-268 = system: SF-268
SF-539 = system: SF-539
SK-MEL-5 = system: SK-MEL-5
SNB-19 = system: SNB-19
SNB-75 = system: SNB-75
TK-10 = system: TK-10
UACC-62 = system: UACC-62
A549 = system: A549
BT-549 = system: BT-549
COLO 205 = system: COLO 205
HCT-116 = system: HCT-116
HL-60 = system: HL-60
HOP-92 = system: HOP-92
HT-29 = system: HT-29
IGROV-1 = system: IGROV-1
K562 = system: K562
KM12 = system: KM12
M14 = system: M14
MDA-MB-435 = system: MDA-MB-435
MDA-N = system: MDA-N
Malme-3M = system: Malme-3M
NCI-H226 = system: NCI-H226
NCI-H460 = system: NCI-H460
NCI-H522 = system: NCI-H522
OVCAR-3 = system: OVCAR-3
OVCAR-5 = system: OVCAR-5
RPMI-8226 = system: RPMI-8226
SF-295 = system: SF-295
SK-MEL-28 = system: SK-MEL-28
SK-MEL-2 = system: SK-MEL-2
SK-OV-3 = system: SK-OV-3
SN12C = system: SN12C
SR = system: SR
SW-620 = system: SW-620
U-251 = system: U-251
UACC-257 = system: UACC-257
UO-31 = system: UO-31

CC1OC(OC2C(OC(=O)[C@]34CCC(C)(C)C[C@H]3C3=CC[C@@H]5[C@@]6(C)CC[C@H](OC7OC(C(=O)O)C(O)C(OC8OCC(O)C(O)C8O)C7O)C(C)(C)[C@@H]6CC[C@@]5(C)[C@]3(C)CC4)OCC(O)C2O)C(O)C(OC2OCC(O)C(O)C2O)C1OC1OCC(O)C(OC2OCC(O)C(O)C2O)C1O (some centres undefined)
GI50 (786-0): 12.1 µM (inactive) and 21.7 µM (inactive) | GI50 (A498): 2.66 µM (inactive) and 2.28 µM (inactive) | GI50 (ACHN): 7.28 µM (inactive) and 12.3 µM (inactive) | GI50 (CAKI-1): 5.93 µM (inactive) and 10.7 µM (inactive) | GI50 (CCRF-CEM): 14.6 µM (inactive) and 13.2 µM (inactive) | GI50 (DU-145): 15 µM (inactive) and 28.2 µM (inactive) | GI50 (EKVX): 17.4 µM (inactive) and 9.31 µM (inactive) | GI50 (HCC 2998): 2 µM (inactive) and 3.89 µM (inactive) | GI50 (HCT-15): 18.6 µM and 15.3 µM | GI50 (HOP-62): 14.9 µM (inactive) and 16.9 µM (inactive) | GI50 (Hs-578T): 26.6 µM (inactive) and 18.4 µM (inactive) | GI50 (LOX IMVI): 10.8 µM (inactive) and 13.4 µM (inactive) | GI50 (MCF7): 7.93 µM (inactive) and 5.35 µM (inactive) | GI50 (MDA-MB-231): 3.3 µM (inactive) and 3.16 µM (inactive) | GI50 (MOLT-4): 9.91 µM (inactive) and 17.9 µM (inactive) | GI50 (NCI-H23): 7.06 µM (inactive) and 13.9 µM (inactive) | GI50 (NCI/ADR-RES): 7.55 µM (inactive) and 14.4 µM (inactive) | GI50 (OVCAR-4): 7.96 µM (inactive) and 14.3 µM (inactive) | GI50 (OVCAR-8): 13.2 µM (inactive) and 17.5 µM (inactive) | GI50 (PC-3): 9.68 µM (inactive) and 11.1 µM (inactive) | GI50 (RXF 393): 15 µM (inactive) and 18.2 µM (inactive) | GI50 (SF-268): 16.7 µM (inactive) and 8.51 µM (inactive) | GI50 (SF-539): 20.5 µM (inactive) | GI50 (SK-MEL-5): 14.5 µM (inactive) and 18.4 µM (inactive) | GI50 (SNB-19): 9.86 µM (inactive) and 14.2 µM (inactive) | GI50 (SNB-75): 12.2 µM (inactive) and 14.1 µM (inactive) | GI50 (TK-10): 11.2 µM (inactive) | GI50 (UACC-62): 16.4 µM (inactive) and 28.8 µM (inactive)

O=c1c2cc(S(=O)(=O)Nc3c(Cl)cccc3Cl)ccc2ncn1NS(=O)(=O)c1ccc2ccccc2c1
GI50 (786-0): > 62.5 µM (inactive) | GI50 (A549): > 62.5 µM (inactive) | GI50 (ACHN): > 62.5 µM (inactive) | GI50 (BT-549): 22.3 µM (inactive) | GI50 (CAKI-1): 25.9 µM (inactive) | GI50 (CCRF-CEM): 17.1 µM (inactive) | GI50 (COLO 205): 46.6 µM (inactive) | GI50 (DU-145): 42.9 µM (inactive) | GI50 (EKVX): 12.9 µM (inactive) | GI50 (HCC 2998): 24.4 µM (inactive) | GI50 (HCT-116): 61.8 µM (inactive) | GI50 (HCT-15): 39.6 µM | GI50 (HL-60): 20.2 µM (inactive) | GI50 (HOP-62): 13 µM (inactive) | GI50 (HOP-92): 19.6 µM (inactive) | GI50 (HT-29): 16.4 µM (inactive) | GI50 (Hs-578T): 15.8 µM (inactive) | GI50 (IGROV-1): 8.67 µM (inactive) | GI50 (K562): 16.6 µM (inactive) | GI50 (KM12): 15.2 µM (inactive) | GI50 (LOX IMVI): 25.4 µM (inactive) | GI50 (M14): > 62.5 µM (inactive) | GI50 (MCF7): > 62.5 µM (inactive) | GI50 (MDA-MB-231): 42.4 µM (inactive) | GI50 (MDA-MB-435): > 62.5 µM (inactive) | GI50 (MDA-N): 41 µM (inactive) | GI50 (MOLT-4): 30.3 µM (inactive) | GI50 (Malme-3M): > 62.5 µM (inactive) | GI50 (NCI-H226): 8.87 µM (inactive) | GI50 (NCI-H23): > 62.5 µM (inactive) | GI50 (NCI-H460): 42.2 µM (inactive) | GI50 (NCI-H522): 45.4 µM (inactive) | GI50 (NCI/ADR-RES): > 62.5 µM (inactive) | GI50 (OVCAR-3): 7.46 µM (inactive) | GI50 (OVCAR-4): > 62.5 µM (inactive) | GI50 (OVCAR-5): 12.6 µM (inactive) | GI50 (OVCAR-8): > 62.5 µM (inactive) | GI50 (PC-3): 12.8 µM (inactive) | GI50 (RPMI-8226): 28.8 µM (inactive) | GI50 (SF-268): > 62.5 µM (inactive) | GI50 (SF-295): 23 µM (inactive) | GI50 (SF-539): > 62.5 µM (inactive) | GI50 (SK-MEL-28): > 62.5 µM (inactive) | GI50 (SK-MEL-2): 20 µM (inactive) | GI50 (SK-OV-3): > 62.5 µM (inactive) | GI50 (SN12C): > 62.5 µM (inactive) | GI50 (SNB-19): 32.6 µM (inactive) | GI50 (SNB-75): 50.1 µM (inactive) | GI50 (SR): 40.9 µM (inactive) | GI50 (SW-620): > 62.5 µM (inactive) | GI50 (TK-10): > 62.5 µM (inactive) | GI50 (U-251): > 62.5 µM (inactive) | GI50 (UACC-257): > 62.5 µM (inactive) | GI50 (UACC-62): 33.2 µM (inactive) | GI50 (UO-31): 10.9 µM (inactive)

CCOC(=O)c1ccc(N2C(=S)N(C(=O)c3ccccc3)C(=N/c3ccccc3)/C2=N\c2ccccc2)cc1
GI50 (786-0): 42.2 µM (inactive) | GI50 (A549): 52.8 µM (inactive) | GI50 (ACHN): 37.8 µM (inactive) | GI50 (BT-549): 30.5 µM (inactive) | GI50 (CAKI-1): 27.6 µM (inactive) | GI50 (DU-145): 92.9 µM (inactive) | GI50 (EKVX): > 100 µM (inactive) | GI50 (HCC 2998): > 100 µM (inactive) | GI50 (HCT-15): > 100 µM | GI50 (HOP-62): 19.7 µM (inactive) | GI50 (HOP-92): 26.4 µM (inactive) | GI50 (HT-29): > 100 µM (inactive) | GI50 (Hs-578T): 58.3 µM (inactive) | GI50 (IGROV-1): 49.5 µM (inactive) | GI50 (K562): > 100 µM (inactive) | GI50 (KM12): > 100 µM (inactive) | GI50 (M14): 27.2 µM (inactive) | GI50 (MCF7): 55.3 µM (inactive) | GI50 (MDA-MB-435): 51.5 µM (inactive) | GI50 (MDA-N): 26.5 µM (inactive) | GI50 (MOLT-4): > 10 µM (inactive) | GI50 (Malme-3M): 53.5 µM (inactive) | GI50 (NCI-H226): 22.9 µM (inactive) | GI50 (NCI-H23): 56.1 µM (inactive) | GI50 (NCI-H460): > 100 µM (inactive) | GI50 (NCI-H522): 51.2 µM (inactive) | GI50 (NCI/ADR-RES): > 100 µM (inactive) | GI50 (OVCAR-3): 25.3 µM (inactive) | GI50 (OVCAR-5): > 100 µM (inactive) | GI50 (OVCAR-8): 24.7 µM (inactive) | GI50 (PC-3): 59 µM (inactive) | GI50 (RPMI-8226): > 100 µM (inactive) | GI50 (RXF 393): > 10 µM (inactive) | GI50 (SF-268): > 100 µM (inactive) | GI50 (SF-295): 65.9 µM (inactive) | GI50 (SF-539): 63.2 µM (inactive) | GI50 (SK-MEL-28): > 100 µM (inactive) | GI50 (SK-MEL-2): 40.6 µM (inactive) | GI50 (SK-MEL-5): 50 µM (inactive) | GI50 (SK-OV-3): 32 µM (inactive) | GI50 (SN12C): > 100 µM (inactive) | GI50 (SNB-19): 72.9 µM (inactive) | GI50 (SNB-75): 22.7 µM (inactive) | GI50 (SR): > 100 µM (inactive) | GI50 (SW-620): > 100 µM (inactive) | GI50 (TK-10): 62.1 µM (inactive) | GI50 (U-251): 25.5 µM (inactive) | GI50 (UACC-257): > 100 µM (inactive) | GI50 (UACC-62): 29.6 µM (inactive) | GI50 (UO-31): 56.9 µM (inactive)

CN(C)CC1CCCCCCCCCCC1=O (centres undefined)
GI50 (HCC 2998): > 10 µM (inactive) | GI50 (MDA-MB-231): > 10 µM (inactive) | GI50 (OVCAR-8): > 10 µM (inactive) | GI50 (RXF 393): > 10 µM (inactive) | GI50 (SF-295): > 10 µM (inactive) | GI50 (UACC-257): > 10 µM (inactive)

— ChEMBL document CHEMBL1201862, “PubChem BioAssay data set” (2004)
